Where no end group is shown, it is not given here.
T1: Id1/E47 interaction (Homo sapiens, UniProt P15923+P41134)
T1 construct: expressed in transfected cells; host or cells: Saccharomyces cerevisiae strain PRT480
T1 sequence (P41134 1-155): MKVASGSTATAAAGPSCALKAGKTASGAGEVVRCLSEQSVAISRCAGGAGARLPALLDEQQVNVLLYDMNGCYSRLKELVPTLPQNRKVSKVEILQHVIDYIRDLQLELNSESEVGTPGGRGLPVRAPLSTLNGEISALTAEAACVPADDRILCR
T1 sequence (P15923 1-651 isoform P15923-2): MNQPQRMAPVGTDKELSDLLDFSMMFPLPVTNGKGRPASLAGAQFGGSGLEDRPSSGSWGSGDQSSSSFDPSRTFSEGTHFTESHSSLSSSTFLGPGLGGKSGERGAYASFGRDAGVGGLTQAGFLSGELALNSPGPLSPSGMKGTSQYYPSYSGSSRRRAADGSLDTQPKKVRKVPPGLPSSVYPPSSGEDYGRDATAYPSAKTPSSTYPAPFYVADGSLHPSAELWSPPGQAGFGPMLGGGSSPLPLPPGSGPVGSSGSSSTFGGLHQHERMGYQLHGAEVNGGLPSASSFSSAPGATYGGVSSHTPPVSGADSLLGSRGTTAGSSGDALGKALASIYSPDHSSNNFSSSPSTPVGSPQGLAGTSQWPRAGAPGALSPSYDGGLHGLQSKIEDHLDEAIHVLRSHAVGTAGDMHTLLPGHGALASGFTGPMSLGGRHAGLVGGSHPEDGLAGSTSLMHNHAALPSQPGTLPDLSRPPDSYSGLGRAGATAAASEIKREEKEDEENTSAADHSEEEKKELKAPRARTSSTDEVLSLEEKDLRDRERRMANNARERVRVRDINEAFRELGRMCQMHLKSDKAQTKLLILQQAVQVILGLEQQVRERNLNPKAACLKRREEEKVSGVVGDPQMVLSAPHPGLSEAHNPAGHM


Experiments:
SCL/E2.22F interaction = molecular target: T2, SCL/E2.22F interaction (Homo sapiens, UniProt P15884+P17542); assay: specificity of blocking: two-hybrid in strain PRT480 expressing E2.22F and SCL; type: cell-based; settings: yeast strain PRT480, specificity control
T2 construct: expressed in transfected cells; host or cells: Saccharomyces cerevisiae strain PRT480
T2 sequence (P17542 whole entry): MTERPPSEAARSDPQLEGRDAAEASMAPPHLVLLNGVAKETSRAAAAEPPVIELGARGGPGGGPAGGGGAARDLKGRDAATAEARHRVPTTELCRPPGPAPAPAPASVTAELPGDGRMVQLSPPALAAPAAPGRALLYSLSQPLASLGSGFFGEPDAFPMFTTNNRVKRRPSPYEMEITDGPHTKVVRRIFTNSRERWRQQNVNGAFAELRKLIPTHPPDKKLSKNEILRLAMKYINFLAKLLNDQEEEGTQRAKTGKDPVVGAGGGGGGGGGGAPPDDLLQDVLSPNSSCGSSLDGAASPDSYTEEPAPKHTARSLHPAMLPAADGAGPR
T2 sequence (P15884 whole entry): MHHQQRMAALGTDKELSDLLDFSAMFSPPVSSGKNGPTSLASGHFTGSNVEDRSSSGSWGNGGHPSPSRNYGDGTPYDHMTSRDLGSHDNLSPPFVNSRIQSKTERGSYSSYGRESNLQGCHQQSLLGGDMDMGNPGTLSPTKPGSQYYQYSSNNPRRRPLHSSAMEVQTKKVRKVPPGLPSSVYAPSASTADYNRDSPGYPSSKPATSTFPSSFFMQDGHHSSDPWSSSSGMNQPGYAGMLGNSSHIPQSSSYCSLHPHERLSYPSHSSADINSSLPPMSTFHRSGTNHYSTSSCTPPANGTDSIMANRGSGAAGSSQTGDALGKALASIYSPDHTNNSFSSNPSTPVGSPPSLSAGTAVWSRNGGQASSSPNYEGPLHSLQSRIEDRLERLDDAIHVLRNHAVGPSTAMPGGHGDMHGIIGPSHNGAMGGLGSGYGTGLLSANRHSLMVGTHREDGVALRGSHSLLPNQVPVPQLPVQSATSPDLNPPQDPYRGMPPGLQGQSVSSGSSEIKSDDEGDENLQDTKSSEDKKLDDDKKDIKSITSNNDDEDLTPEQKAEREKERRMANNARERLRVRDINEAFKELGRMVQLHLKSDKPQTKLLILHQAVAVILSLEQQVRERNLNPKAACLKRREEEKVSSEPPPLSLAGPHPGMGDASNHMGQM
Experimental: (§1) Subsequently, the specificity of blocking was assayed, by mating those strains that did recapitulate the blocked phenotype into a strain PRT480 expressing two interacting proteins selected from the group consisting of: (i) E2,2 2F and SCL; and (ii) ID and E47.

Id1/E47 interaction = molecular target: T1, Id1/E47 interaction; assay: specificity of blocking: two-hybrid in strain PRT480 expressing ID and E47; type: cell-based; settings: yeast strain PRT480, specificity control
Experimental: as §1

SCL/E47 interaction = assay: reverse two-hybrid screen for antagonists of the SCL/E47 interaction in yeast; type: cell-based; settings: re-screened clones
Description: The nucleic acid encoding the E47 protein was cloned into the bait vector pDD (SEQ NO: 61; FIG. 6) in operable connection with the LexA DNA binding domain. The pDD vector also contains a nucleic acid encoding the HIS3 gene (FIG. 6).
These vectors were transformed into the PRT 480 yeast strain (which contains two LexA-CYH2 chimeric reporter genes and two LexA-URA3 counter selectable reporter genes).
The process of screening the library is represented schematically in FIG. 7. […] Approximately 300,000 diploids were plated onto 30 cm plates containing complete synthetic media lacking histidine and tryptophan (ie., HW media), and supplemented with 0.06% (w/v) galactose/0.04% 5-FOA and glucose.
The FOA-resistant colonies were replica-plated from the master-plate onto plates containing HWU media, or media lacking histidine, tryptophan and leucine (ie. HWL media). The replica-plate media also contained various concentrations of galactose.
Library plasmids were re-transformed into strain PRT51, and the resultant yeast cells were again mated with strain PRT 480 SCL/E47 haploids. Diploids were re-screened for their ability to block the SCL/E47 interaction, by plating in the forward direction on plates containing HWU or HWL media supplemented with various concentrations of galactose.

Der p 1 = assay: immunization of mice with 2C7pan phage clones, serum tested by DELFIA and competitive DELFIA; type: in vivo; settings: for anti-Der p 1 immune response in immunized mice: 10^11 phage particles in Freunds complete adjuvant, bled after first booster, DELFIA; for inhibition of immune serum binding to Der p 1 by recombinant Der p 1: competitive DELFIA, BSA as negative control
Experimental: The clones, 2C7pan clones 9, 26 and 42, described in Example 8 were then used to immunize mice. Phage were purified by CsCl gradient centrifugation and then used to immunize mice. Each injection consisted of 10^11 phage particles suspended in Freunds complete adjuvant. After the first booster mice were bled and tested by DELFIA for binding to Der p 1. Furthermore, the specificity of the immune response for Der p 1 was tested using competitive DELFIA.

monoclonal antibody 2C7 = assay: competition DELFIA of 2C7pan clones binding to 2C7; settings: for inhibition of clone binding to 2C7 by recombinant Der p 1: competitor recombinant Der p 1
Description: Competition DELIFAs were then used to study the interaction between the monoclonal antibody and the peptides identified, using recombinant Der p 1 or the epitope of the 2C7 antibody (GST-P1fragment 98-140 […]) as a competitor.

[1] = system: anti-Der p 1 monoclonal antibody 2C7; assay: T7-DELFIA binding of phage-displayed peptides to panning antibody 2C7; settings: 50 μl lysate in the standard T7-DELFIA; 500 ng/well 2C7
Experimental: The monoclonal antibody (approximately 10 μg) was adsorbed to a Petri dish and the amplified phage display library brought into contact with the adsorbed antibody.
The eluate after round three was amplified and ninety-nine individual T7 clones were tested for binding to the panning antibody 2C7 using a dissociation-enhanced ianthinide fluoroimmunoassay (DELFIA) with 500 ng/well 2C7. Assays were performed essentially according to manufacturer's instructions (Perkin Elmer Life Sciences). The first ligand used in the DELFIA was T7lysate (ie the library) (1:2 in assay buffer); second ligand: SIGMA biotinylated anti-T7 monoclonal antibody 1:10,000 (mouse), Strep-Eur+enhancement solution).

Molecule | Target interaction SCL/E2.22F blocked (SCL/E2.22F interaction) | Target interaction Id1/E47 blocked (Id1/E47 interaction) | Target interaction SCL/E47 blocked (SCL/E47 interaction) | anti-Der p 1 immune response in immunized mice (Der p 1) | inhibition of immune serum binding to Der p 1 by recombinant Der p 1 (Der p 1) | inhibition of clone binding to 2C7 by recombinant Der p 1 (monoclonal antibody 2C7) | TRF (time resolved fluorometry) binding to 2C7 [1] [TRF] | inhibition of clone binding to 2C7 by GST-P1fragment 98-140 (monoclonal antibody 2C7; competitor GST-P1fragment 98-140 (2C7 epitope))
BGF 06: SCL/E47 peptide blocker; fusion peptide SEQ ID NO: 67, fragment-encoded SEQ ID NO: 69; A. aeolicus fragment (MGKPIPNPLLGLDSTQAMGAPPKKKRKVAEFRSDYKDDDDKAYHIIAVCFLIKVS) | − | − | + |  |  |  |  | 
GDPN S A S G T A (GDPNSASGTA; numbers in words are those of the source; also: displayed on T7 phage) [Clone 2c7pan9] |  |  |  | an anti-Der p 1 immune response was induced | inhibited by the addition of recombinant Der p 1 | specifically inhibited | 17000 | 
BGF 24: SCL/E47 peptide blocker; fusion peptide SEQ ID NO: 75, fragment-encoded SEQ ID NO: 77; T. maritima fragment (MGKPIPNPLLGLDSTQAMGAPPKKKRKVAEFRSDYKDDDDKLIKHHWVLSIITTASR) | − | − | + |  |  |  |  | 
GDPN S S S V D K L G Y W R V T E S S N E (GDPNSSSVDKLGYWRVTESSNE; numbers in words are those of the source; also: displayed on T7 phage) [Clone 2c7pan42] |  |  |  | an anti-Der p 1 immune response was induced | inhibited by the addition of recombinant Der p 1 | only partially inhibited | 64000 | higher levels of inhibition
GDP R T H R (GDPRTHR; numbers in words are those of the source; also: displayed on T7 phage) [Clone 2c7pan26] |  |  |  | an anti-Der p 1 immune response was induced | inhibited by the addition of recombinant Der p 1 | specifically inhibited | 8500 | 
BGF 05: non-specific blocker clone; fusion peptide SEQ ID NO: 63, fragment-encoded SEQ ID NO: 65; H. influenzae fragment (MGKPIPNPLLGLDSTQAMGAPPKKKRKVAEFARTTTTRLINQSVVRKIWLYRDAR) | + | + | + |  |  |  |  | 
GDPN S S T S P R (GDPNSSTSPR; numbers in words are those of the source; also: displayed on T7 phage) [Clone 2c7pan8] |  |  |  |  |  | specifically inhibited | 1900 | 
BGF 13: SCL/E47 peptide blocker; fusion peptide SEQ ID NO: 71, fragment-encoded SEQ ID NO: 73; H. influenzae fragment (MGKPIPNPLLGLDSTQAMGAPPKKKRKVAEFGFCSNQMREM) | − | − | + |  |  |  |  | 
GDPN S R G K S R E Y L S (GDPNSRGKSREYLS; numbers in words are those of the source; also: displayed on T7 phage) [Clone 2c7pan14] |  |  |  |  |  | specifically inhibited | 1800 | 
BGF 35: SCL/E47 peptide blocker; fusion peptide SEQ ID NO: 79, fragment-encoded SEQ ID NO: 81; H. influenzae fragment (peptide) MGKPIPNPLLGLDSTQAMGAPPKKKRKVAEFQGRRRQGLSINQWLEKYGYIEMQGNETFKLAVRELSNVVEETLLANNLDKKDLDWLVVVVLVV | − | − | + |  |  |  |  | 
